Experimental data from patent publication US8809376B2, “Indanyloxydihydrobenzofuranylacetic acids” (Boehringer Ingelheim International GmbH, priority 2012, dated 2014).

Target: human GPR40 receptor (Homo sapiens, UniProt O14842)
Test: Assay I: IP1 accumulation (IPOne assay system) in 1321N1 cells stably expressing human GPR40 receptor
Format: cell-based
Conditions: stimulated 1 hour at 37° C., 10% CO2, LiCl 50 mM
Experimental: IP1 accumulation measurements using the IPOne assay system—1321N1 cells stably expressing human GPR40 receptor (Euroscreen, Belgium) are seeded 24 h before the assay in black clear-bottom collagen-coated 384-well plates in culture medium containing 10% FCS, 1% Na-Pyruvate and 400 μg/mL G418. IP1 is assayed according to the Manufacturer's description (Cisbio Bioassays, France). In brief, the assay is started by substitution of the culture medium by stimulation buffer (Hepes 10 mM, CaCl2 1 mM, MgCl2 0.5 mM, KCl 4.2 mM, NaCl 146 mM and glucose 5.5 mM, pH 7.4) without LiCl. Cells are stimulated for 1 hour at 37° C., 10% CO2 by addition of the compounds that are diluted in stimulation buffer containing LiCl yielding a final LiCl concentration of 50 mM. Assays are stopped by adding HTRF-conjugates (IP1-d2 and Anti-IP1 cryptate Tb) and lysis buffer, provided by the manufacturer. After an incubation time of 1 hour at room temperature plates are measured using an EnVision™, Perkin Elmer. The obtained fluorescence ratios at 665/615 nM are then used to calculate the pEC50 values using GraphPad Prism 5 (Graphpad Software Inc, USA) by interpolation using an IP1 reference curve and subsequent sigmoidal curve fitting allowing for a variable hill slope.

human GPR40 receptor, sequence (O14842 whole entry): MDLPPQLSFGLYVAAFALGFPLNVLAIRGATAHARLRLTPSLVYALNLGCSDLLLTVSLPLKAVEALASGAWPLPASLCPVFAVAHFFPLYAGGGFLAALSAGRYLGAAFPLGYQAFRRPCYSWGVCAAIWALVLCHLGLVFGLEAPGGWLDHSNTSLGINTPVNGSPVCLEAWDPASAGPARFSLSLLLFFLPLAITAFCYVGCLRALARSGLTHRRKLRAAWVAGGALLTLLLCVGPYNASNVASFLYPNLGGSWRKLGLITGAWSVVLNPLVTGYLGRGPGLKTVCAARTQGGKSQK

Row | Compound | EC50
1 | Cc1ccccc1Cc1c(C#N)ccc2c1CC[C@H]2Oc1ccc2c(c1)OC[C@H]2CC(=O)O [Example 6, {(S)-6-[(R)-5-Cyano-4-(2-methyl-benzyl)-indan-1-yloxy]-2,3-dihydro-benzofuran-3-yl}-acetic acid] | 8 nM
2 | CSc1ccc(Cc2c(C#N)ccc3c2CC[C@H]3Oc2ccc3c(c2)OC[C@H]3CC(=O)O)cc1 [Example 7, {(S)-6-[(R)-5-Cyano-4-(4-methylsulfanyl-benzyl)-indan-1-yloxy]-2,3-dihydro-benzofuran-3-yl}-acetic acid] | 18 nM
3 | CS(=O)(=O)c1ccc(Cc2c(C#N)ccc3c2CC[C@H]3Oc2ccc3c(c2)OC[C@H]3CC(=O)O)cc1 [Example 8, {(S)-6-[(R)-5-Cyano-4-(4-methylsulfonyl-benzyl)-indan-1-yloxy]-2,3-dihydro-benzofuran-3-yl}-acetic acid] | 325 nM
4 | N#Cc1cccc(Cc2c(C#N)ccc3c2CC[C@H]3Oc2ccc3c(c2)OC[C@H]3CC(=O)O)c1 [Example 9, {(S)-6-[(R)-5-Cyano-4-(3-cyano-benzyl)-indan-1-yloxy]-2,3-dihydro-benzofuran-3-yl}-acetic acid] | 29 nM
5 | O=C(O)C[C@@H]1COc2cc(O[C@@H]3CCc4c3ccc(C(F)(F)F)c4Cc3ccccc3)ccc21 [Example 10, {(S)-6-[(R)-4-Benzyl-5-trifluoromethyl-indan-1-yloxy]-2,3-dihydro-benzofuran-3-yl}-acetic acid] | 3 nM
6 | N#Cc1ccc2c(c1Cc1ccc(O)cc1)CC[C@H]2Oc1ccc2c(c1)OC[C@H]2CC(=O)O [Example 11, {(S)-6-[(R)-5-Cyano-4-(4-hydroxy-benzyl)-indan-1-yloxy]-2,3-dihydro-benzofuran-3-yl}-acetic acid] | 12 nM
7 | C[S+]([O-])c1ccc(Cc2c(C#N)ccc3c2CC[C@H]3Oc2ccc3c(c2)OC[C@H]3CC(=O)O)cc1 (stereo partly drawn) [Example 12, {(S)-6-[(R)-5-Cyano-4-(4-methylsulfinyl-benzyl)-indan-1-yloxy]-2,3-dihydro-benzofuran-3-yl}-acetic acid] | 479 nM
8 | COc1ccc(Cc2ccc(F)c3c2CC[C@H]3Oc2ccc3c(c2)OC[C@H]3CC(=O)O)cc1 [Example 13, {(S)-6-[(R)-7-Fluoro-4-(4-methoxybenzyl)-indan-1-yloxy]-2,3-dihydrobenzofuran-3-yl}acetic acid] | 5 nM
9 | COc1cccc(Cc2ccc(F)c3c2CC[C@H]3Oc2ccc3c(c2)OC[C@H]3CC(=O)O)c1 [Example 14, {(S)-6-[(R)-7-Fluoro-4-(3-methoxybenzyl)-indan-1-yloxy]-2,3-dihydrobenzofuran-3-yl}-acetic acid] | 4 nM
10 | O=C(O)C[C@@H]1COc2cc(O[C@@H]3CCc4c(Cc5ccc(Cl)nc5)ccc(F)c43)ccc21 [Example 15] | 35 nM
11 | O=C(O)C[C@@H]1COc2cc(O[C@@H]3CCc4c(Cc5ccccc5)ccc(F)c43)ccc21 [Example 16, {(S)-6-[(R)-4-Benzyl-7-fluoro-indan-1-yloxy]-2,3-dihydrobenzofuran-3-yl}-acetic acid] | 5 nM
